Like-named read-outs stand apart in the source and are kept apart here. Square brackets hold non-standard residues; d marks the D form. Ends that are not written are not given here. Peptide text beside a SMILES is read from it. Hyp = O=C(O)[C@@H]1C[C@@H](O)CN1
Assays:
[1] = target: T1, DPP-4 (manufactured by Sigma, derived from porcine kidney) (Sus scrofa, UniProt P22411); test: DPP-4 inhibition rate and IC50 measurement, fluorescence of AMC freed from Gly-Pro-MCA; format: biochemical; settings: for inhibition at 350 µg/mL / Inhibition rate (%) at 0.35 mg/ml time: sample 0.35 mg/ml, substrate Gly-Pro-MCA, pH 7.5, 37° C.; for inhibition at 350 µg/mL: read-out: Inhibition rate (%) at 0.35 mg/ml time
T1 construct: derived from porcine kidney; purchased Sigma; host or cells: porcine kidney (tissue-derived)
T1 sequence (P22411 whole entry): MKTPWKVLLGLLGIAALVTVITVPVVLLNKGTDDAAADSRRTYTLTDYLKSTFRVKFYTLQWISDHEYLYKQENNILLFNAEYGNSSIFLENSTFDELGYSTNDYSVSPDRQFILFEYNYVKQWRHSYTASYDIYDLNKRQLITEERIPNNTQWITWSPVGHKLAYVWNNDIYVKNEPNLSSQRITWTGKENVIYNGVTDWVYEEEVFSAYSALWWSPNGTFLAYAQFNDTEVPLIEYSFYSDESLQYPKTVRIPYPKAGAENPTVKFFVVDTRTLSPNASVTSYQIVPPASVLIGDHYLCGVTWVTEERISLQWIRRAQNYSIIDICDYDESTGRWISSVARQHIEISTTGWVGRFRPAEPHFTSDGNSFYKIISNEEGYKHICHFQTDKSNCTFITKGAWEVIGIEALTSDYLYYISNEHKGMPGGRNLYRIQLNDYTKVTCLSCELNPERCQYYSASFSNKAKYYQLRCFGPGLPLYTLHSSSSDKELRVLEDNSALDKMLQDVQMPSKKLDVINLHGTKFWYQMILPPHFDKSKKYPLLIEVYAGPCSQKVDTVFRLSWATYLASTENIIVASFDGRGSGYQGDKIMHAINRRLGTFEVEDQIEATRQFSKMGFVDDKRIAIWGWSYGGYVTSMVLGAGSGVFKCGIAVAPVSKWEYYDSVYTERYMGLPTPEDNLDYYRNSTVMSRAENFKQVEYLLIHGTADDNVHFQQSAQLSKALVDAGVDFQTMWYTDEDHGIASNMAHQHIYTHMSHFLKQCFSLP
Method: A sample liquid 35 μl obtained by dissolving a sample 1 mg in 50 mM tris-hydrochloric acid buffer (pH 7.5) 1 ml and DPP-4 (manufactured by Sigma, derived from porcine kidney; 8.6 mU/ml) 15 μl that had been dissolved in 50 mM tris-hydrochloric acid buffer (pH 7.5) were mixed in a microtiter plate well (manufactured by NUNC, trade name “237015”) and incubated at 37° C. for 10 minutes.
Thereto, 50 μl of a substrate solution (one obtained by dissolving glycyl-Pro-4-methylcoumarin-7-amide (Gly-Pro-MCA) in 50 mM tris-hydrochloric acid buffer (pH 7.5) so as to be 10 μM) that had in advance heated to and kept at 37° C. was added, mixed, and allowed to react at 37° C. for 20 minutes.
The fluorescence intensity of 7-amino-4-methylcoumarin (AMC) that was freed by DPP-4 was measured with time by a microplate reader type fluorescence detector (manufactured by Corona Electric Co., Ltd., trade name “SH-9000”). Note that the measurement wavelength was an excitation wavelength of 380 nm and a measurement wavelength of 460 nm. Note that one obtained by using the same amount of 50 mM tris-hydrochloric acid buffer (pH 7.5) in replace of the sample was used as a control; and the fluorescence intensity thereof was measured.
The activity of DPP-4 was expressed by an average gradient of change in the amount of the fluorescence intensity during the reaction time; and, as for DPP-4 inhibition rate, difference obtained by, with the control as 100%, subtracting the activity of the sample from the above-mentioned control was calculated as an inhibition rate (%).
In accordance with the above method of measuring a DPP-4 inhibition rate, sample concentration was changed between 0.001 and 7.2 μmol/ml to obtain the inhibition rate, thereby calculating the 50% inhibitory concentration (IC50 value) of the activity of DPP-4.

[2] = target: DPP-4 (manufactured by Sigma, derived from porcine kidney) (porcine, UniProt P22411 38-766, limits assumed); test: cell-based or functional assay
Chain of DPP-4 (manufactured by Sigma, derived from porcine kidney) (porcine, UniProt P22411 38-766, limits assumed) (P22411 38-766 limits assumed): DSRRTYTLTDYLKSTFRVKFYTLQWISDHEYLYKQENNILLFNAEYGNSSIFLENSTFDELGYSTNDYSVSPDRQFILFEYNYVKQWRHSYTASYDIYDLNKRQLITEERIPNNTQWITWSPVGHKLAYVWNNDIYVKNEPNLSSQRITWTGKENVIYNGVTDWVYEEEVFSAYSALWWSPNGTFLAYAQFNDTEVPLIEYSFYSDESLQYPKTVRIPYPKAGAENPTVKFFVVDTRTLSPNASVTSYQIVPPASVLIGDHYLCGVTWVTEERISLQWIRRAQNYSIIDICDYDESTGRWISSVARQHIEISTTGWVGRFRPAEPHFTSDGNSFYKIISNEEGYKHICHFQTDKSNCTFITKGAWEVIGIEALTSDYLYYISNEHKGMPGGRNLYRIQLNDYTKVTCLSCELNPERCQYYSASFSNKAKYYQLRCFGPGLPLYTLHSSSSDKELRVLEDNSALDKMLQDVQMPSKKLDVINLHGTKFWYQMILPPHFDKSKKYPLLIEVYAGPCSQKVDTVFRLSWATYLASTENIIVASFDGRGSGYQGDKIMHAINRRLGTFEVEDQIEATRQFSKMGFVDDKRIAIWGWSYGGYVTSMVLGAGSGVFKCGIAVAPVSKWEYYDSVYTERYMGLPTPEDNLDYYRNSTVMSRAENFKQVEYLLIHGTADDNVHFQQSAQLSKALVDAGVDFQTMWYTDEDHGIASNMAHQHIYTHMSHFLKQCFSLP

[3] = Table 1, sample concentration changed between 0.001 and 7.2 μmol/ml, read-out: IC50 value
[4] = Table 2, sample concentration changed between 0.001 and 7.2 μmol/ml, read-out: IC50 value
[5] = Table 1, sample concentration changed between 0.001 and 7.2 μmol/ml

Molecule: C[C@H](NC(=O)[C@@H]1CCCN1C(=O)CN)C(=O)NCC(=O)N1CCC[C@H]1C(=O)N1C[C@H](O)C[C@H]1C(=O)O [Example 3, Gly-Pro-Ala-Gly-Pro-Hyp] (H-GPAGP[Hyp]-OH; N-terminus and C-terminus assumed)
- IC50 [1, 3]: 70 µM

Molecule: C[C@H](NC(=O)[C@@H]1CCCN1C(=O)CN)C(=O)NCC(=O)O [Example 9, Gly-Pro-Ala-Gly] (H-GPAG-OH; N-terminus and C-terminus assumed)
- IC50 [1, 3]: 150 µM

Molecule: C[C@H](NC(=O)CN)C(=O)O [Example 11, Gly-Ala] (H-Gly-Ala-OH; N-terminus and C-terminus assumed)
- inhibition at 350 µg/mL ([1]; Table 1): 42.5%
- IC50 [1, 3]: 3340 µM

Molecule: CC(C)C[C@H](N)C(=O)N1CCC[C@H]1C(=O)O [Example 16, Leu-Pro] (H-Leu-Pro-OH; N-terminus and C-terminus assumed)
- inhibition at 350 µg/mL ([1]; Table 2): 92.1%
- IC50 [1, 4]: 110 µM

Molecule: CC(C)C[C@H](N)C(=O)N1C[C@H](O)C[C@H]1C(=O)O [Example 20, Leu-Hyp] (H-Leu-[Hyp]-OH)
- inhibition at 350 µg/mL ([1]; Table 2): 48.6%

Molecule: CC(C)C[C@H](N)C(=O)N1C[C@H](O)C[C@H]1C(=O)NCC(=O)O [Example 21, Leu-Hyp-Gly] (H-Leu-[Hyp]-Gly-OH)
- inhibition at 350 µg/mL ([1]; Table 2): 89.3%
- IC50 [1, 4]: 130 µM

Molecule: CC[C@H](C)[C@H](N)C(=O)N1C[C@H](O)C[C@H]1C(=O)NCC(=O)O [Example 22, Ile-Hyp-Gly] (H-Ile-[Hyp]-Gly-OH; N-terminus and C-terminus assumed)
- inhibition at 350 µg/mL ([1]; Table 2): 71%
- IC50 [1, 4]: 500 µM

Molecule: CC(C)C[C@H](N)C(=O)N1C[C@H](O)C[C@H]1C(=O)NCC(=O)N1CCC[C@H]1C(=O)N[C@@H](C)C(=O)O [Example 23, Leu-Hyp-Gly-Pro-Ala] (H-L[Hyp]GPA-OH)
- inhibition at 350 µg/mL ([1]; Table 2): 52.1%
- IC50 [1, 4]: 830 µM

Molecule: O=C(O)CNC(=O)[C@@H]1C[C@@H](O)CN1C(=O)[C@@H]1CCCN1 [Example 24, Pro-Hyp-Gly] (H-Pro-[Hyp]-Gly-OH; N-terminus and C-terminus assumed)
- inhibition at 350 µg/mL ([1]; Table 2): 27.2%
- IC50 [1, 4]: 4640 µM

Molecule: C[C@H](N)C(=O)N1C[C@H](O)C[C@H]1C(=O)NCC(=O)O [Example 25, Ala-Hyp-Gly] (H-Ala-[Hyp]-Gly-OH; N-terminus and C-terminus assumed)
- inhibition at 350 µg/mL ([1]; Table 2): 14.6%
- IC50 [1, 4]: 9450 µM

Molecule: GAIGPA [Example 12, Gly-Ala-Ile-Gly-Pro-Ala]
- inhibition at 350 µg/mL ([1]; Table 1): 71.5%
- IC50 [1, 3]: 285 µM

Molecule: GAIGPS [Example 13, Gly-Ala-Ile-Gly-Pro-Ser]
- inhibition at 350 µg/mL ([1]; Table 1): 70.4%
- IC50 [1, 3]: 314 µM

Molecule: GAVGP [Example 15, Gly-Ala-Val-Gly-Pro]
- inhibition at 350 µg/mL ([1]; Table 1): 40.9%
- IC50 [1, 3]: 1200 µM

Molecule: GAVGPA [Example 14, Gly-Ala-Val-Gly-Pro-Ala]
- inhibition at 350 µg/mL ([1]; Table 1): 63.7%
- IC50 [1, 3]: 437 µM

Molecule: GPAGPI [Example 4, Gly-Pro-Ala-Gly-Pro-Ile]
- IC50 [1, 3]: 50 µM

Molecule: GPAGPR [Example 2, Gly-Pro-Ala-Gly-Pro-Arg]
- IC50 [1, 3]: 80 µM

Molecule: GPIGPV [Example 6, Gly-Pro-Ile-Gly-Pro-Val]
- IC50 [1]: 9.3 µM

Molecule: GPLGPV [Example 5, Gly-Pro-Leu-Gly-Pro-Val]
- IC50 [1, 3]: 24 µM

Molecule: Gly-Ala-Hyp (Gly-Ala-[Hyp]) [compound 2, reference compound]
- Inhibition rate (%) at 0.35 mg/ml time ([1]; Table 1): 0%
- IC50 value [1, 5]: No inhibitory

Molecule: Gly-Pro-Hyp (Gly-Pro-[Hyp]) [Comparative Example 1, reference compound]
- Inhibition rate (%) at 0.35 mg/ml time ([1]; Table 1): 0%
- IC50 value [1, 5]: No inhibitory

Molecule: H-GPAGP-OH [Example 1, Gly-Pro-Ala-Gly-Pro]
- inhibition at 350 µg/mL ([1]; Table 1): 95.8%
- IC50 [1, 3]: 60 µM

Molecule: LPGPA [Example 18, Leu-Pro-Gly-Pro-Ala]
- inhibition at 350 µg/mL ([1]; Table 2): 94.9%
- IC50 [1, 4]: 63 µM

Molecule: GPAG [Gly-Pro-Ala-Gly]
- IC50 value [2]: 150 µM

Molecule: GPV [Gly-Pro-Val]
- IC50 value [2]: 370 µM
- Inhibition rate (%) at 0.35 mg/ml time [2]: 76.5%

Source: patent US9340579B2, “DPP-4 inhibitor” (NIPPI, INCORPORATED, priority 2011, dated 2016)
